According to the supplement of paper PMC10307832:

Tests used:
Experiment in all cases: relative viability (nuclei count vs DMSO), 5 days (fraction); higher = more cells survive
Irinotecan + Alpelisib = compound: CCc1c2c(nc3ccc(OC(=O)N4CCC(N5CCCCC5)CC4)cc13)-c1cc3c(c(=O)n1C2)COC(=O)[C@]3(O)CC [Irinotecan] + Cc1nc(NC(=O)N2CCC[C@H]2C(N)=O)sc1-c1ccnc(C(C)(C)C(F)(F)F)c1 [Alpelisib] (partner 2 µM)
Outline: (§1)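 One day after seeding in 1536-well plates, lung cancer cell lines were dosed by pin tool. Dosing was either single-drug or a fixed anchor-drug dose plus five library-drug doses (not always all listed) in √10 steps. After 5 days, nuclei were stained in one fix-and-stain step and counted on 4× images, and relative viability is the nuclei count of treated wells over that of vehicle wells, given as the median of duplicate plates.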

MK-8033 + Lapatinib = compound: Cn1cc(-c2cnc3ccc4ccc(CS(=O)(=O)NCc5ccccn5)cc4c(=O)c3c2)cn1 [MK-8033] + CS(=O)(=O)CCNCc1ccc(-c2ccc3ncnc(Nc4ccc(OCc5cccc(F)c5)c(Cl)c4)c3c2)o1 [Lapatinib] (partner 2 µM)
Outline: as §1

RU-SKI 43 + Phenformin = compound: CC[C@@H](C)CNCC(=O)N1CCC2=C([C@@H]1COC3=CC=CC(=C3)C)C=CS2 [RU-SKI 43] + N=C(N)NC(=N)NCCc1ccccc1 [Phenformin] (partner 250 µM)
Outline: as §1

RU-SKI 43 + Decitabine = compound: CC[C@@H](C)CNCC(=O)N1CCC2=C([C@@H]1COC3=CC=CC(=C3)C)C=CS2 [RU-SKI 43] + Nc1ncn([C@H]2C[C@H](O)[C@@H](CO)O2)c(=O)n1 [Decitabine] (partner 2 µM)
Outline: as §1

| Cell Line | relative viability (Irinotecan + Alpelisib; first compound 0.6325 µM) | relative viability (Irinotecan + Alpelisib; first compound 2 µM) | relative viability (Irinotecan + Alpelisib; first compound 6.325 µM) | relative viability (Irinotecan + Alpelisib; first compound 20 µM) | relative viability (MK-8033 + Lapatinib; first compound 0.02 µM) | relative viability (MK-8033 + Lapatinib; first compound 0.06325 µM) | relative viability (MK-8033 + Lapatinib; first compound 0.2 µM) | relative viability (MK-8033 + Lapatinib; first compound 0.6325 µM) | relative viability (MK-8033 + Lapatinib; first compound 2 µM) | relative viability (RU-SKI 43 + Phenformin; first compound 0.1 µM) | relative viability (RU-SKI 43 + Phenformin; first compound 0.3162 µM) | relative viability (RU-SKI 43 + Phenformin; first compound 1 µM) | relative viability (RU-SKI 43 + Phenformin; first compound 3.162 µM) | relative viability (RU-SKI 43 + Phenformin; first compound 10 µM) | relative viability (RU-SKI 43 + Decitabine; first compound 0.1 µM) | relative viability (RU-SKI 43 + Decitabine; first compound 0.3162 µM) | relative viability (RU-SKI 43 + Decitabine; first compound 1 µM) | relative viability (RU-SKI 43 + Decitabine; first compound 3.162 µM) | relative viability (RU-SKI 43 + Decitabine; first compound 10 µM) |
| --- | --- | --- | --- | --- | --- | --- | --- | --- | --- | --- | --- | --- | --- | --- | --- | --- | --- | --- | --- |
| NCI-H1993 | 0.617 | 0.643 | 0.63 | 0.68 | 0.765 | 0.677 | 0.7 | 0.802 | 0.828 | 0.526 | 0.5 | 0.471 | 0.511 | 0.487 | 0.547 | 0.578 | 0.517 | 1.1 | 0.643 |
| NCI-H838 | 1.28 | 0.962 | 0.354 | 0.295 | 0.902 | 0.844 | 0.925 | 0.927 | 0.911 | 0.682 | 0.626 | 0.745 | 0.654 | 0.682 | 0.416 | 0.489 | 0.469 | 0.429 | 0.444 |
| NCI-H1755 | 0.822 | 0.434 | 0.292 | 0.363 | 1.06 | 0.986 | 1.02 | 1.02 | 0.957 | 0.648 | 0.613 | 0.63 | 0.644 | 0.666 | 0.714 | 0.798 | 0.758 | 0.715 | 0.755 |
| NCI-H1666 | 0.697 | 0.552 | 0.486 | 0.337 | 0.708 | 0.505 | 0.519 | 0.656 | 0.587 | 0.58 | 0.574 | 0.518 | 0.519 | 0.53 | 0.739 | 0.794 | 0.721 | 0.643 | 0.665 |
| NCI-H2085 | 0.888 | 0.75 | 0.458 | 0.482 | 0.746 | 0.646 | 0.695 | 0.743 | 0.806 | 0.758 | 0.652 | 0.709 | 0.698 | 0.631 | 0.509 | 0.497 | 0.572 | 0.603 | 0.509 |
| COR-L23 | 0.324 | 0.238 | 0.158 | 0.119 | 1.17 | 0.997 | 0.7 | 0.941 | 0.901 | 0.426 | 0.544 | 0.46 | 0.553 | 0.421 | 0.428 | 0.369 | 0.448 | 0.514 | 0.433 |
| NCI-H647 | 0.816 | 0.435 | 0.197 | 0.202 | 0.892 | 1.02 | 0.798 | 1.09 | 1.05 | 0.631 | 0.621 | 0.84 | 0.686 | 0.501 | 0.383 | 0.404 | 0.393 | 0.43 | 0.353 |
| NCI-H1793 |  | 0.668 | 0.383 | 0.259 | 0.793 |  | 0.492 | 0.783 | 0.495 | 0.401 | 0.391 | 0.464 | 0.323 | 0.3 | 0.461 | 0.421 | 0.458 | 0.486 | 0.443 |
| LCLC-97TM1 | 0.105 | 0.165 | 0.154 | 0.224 | 1.35 | 1.06 | 0.656 | 0.957 | 0.929 | 0.463 | 0.471 | 0.422 | 0.43 | 0.384 | 0.24 | 0.239 | 0.243 | 0.237 | 0.246 |
| HOP-62 | 0.244 | 0.171 | 0.158 | 0.129 | 1.01 | 0.753 | 0.786 | 1.07 | 0.987 | 0.688 | 0.547 | 0.779 | 0.789 | 0.714 | 0.231 | 0.179 | 0.248 | 0.202 | 0.209 |
| NCI-H520 | 0.751 | 0.733 | 0.282 | 0.203 | 0.959 | 0.853 | 0.784 | 0.867 | 0.79 | 0.673 | 0.629 | 0.519 | 0.581 | 0.561 | 0.502 | 0.564 | 0.568 | 0.589 | 0.501 |
| NCI-H1734 | 0.625 | 0.331 | 0.143 | 0.233 | 1.11 | 0.88 | 1.02 | 1.09 | 1.01 | 0.43 | 0.385 | 0.44 | 0.35 | 0.38 | 0.522 | 0.544 | 0.598 | 0.487 | 0.473 |
| A549 | 0.776 | 0.642 | 0.207 | 0.0613 | 0.911 | 0.954 | 0.967 | 0.946 | 1.02 | 0.186 | 0.16 | 0.156 | 0.113 | 0.143 | 0.256 | 0.263 | 0.25 | 0.307 | 0.234 |
| NCI-H2170 | 0.929 | 0.399 | 0.3 | 0.216 | 0.272 | 0.263 | 0.254 | 0.311 | 0.275 | 0.462 | 0.417 | 0.395 | 0.431 | 0.403 | 0.439 | 0.514 | 0.438 | 0.426 | 0.49 |
| NCI-H1975 | 0.654 | 0.68 | 0.324 | 0.195 | 0.829 | 0.795 | 0.801 | 0.844 | 0.826 | 0.385 | 0.468 | 0.444 | 0.422 | 0.404 | 0.346 | 0.377 | 0.439 | 0.381 | 0.276 |
| NCI-H1437 | 0.75 | 0.67 | 0.262 | 0.147 | 0.736 | 0.773 | 0.793 | 0.834 | 0.749 | 0.359 | 0.267 | 0.311 | 0.352 | 0.306 | 0.591 | 0.582 | 0.601 | 0.56 | 0.557 |
| A-427 |  | 0.19 | 0.176 | 0.185 | 1.05 | 1.1 | 0.947 | 1.1 | 1.08 | 0.335 | 0.308 | 0.44 | 0.29 | 0.305 | 0.555 | 0.477 | 0.568 | 0.551 | 0.538 |
